Measured values published in patent US20070060558A1 (PALUMED S.A., priority 2004, published 2007).
In brackets after ≈: the same amount, converted by molar mass. Counter-ions that a name gives are not always drawn. Like-named read-outs stand apart in the source and are kept apart here. One block for each compound: values may come before it.

Key:
[1] = system: Staphylococcus aureus MSSA CIP 4.83; test: Antibacterial activity (MIC/MBC); type: cell-based
E. coli CIP 54127 = test: Antibacterial activity (MIC); type: cell-based; conditions: Escherichia coli, CIP54127
P. aeruginosa CIP 103467 = test: Antibacterial activity (MIC); type: cell-based; conditions: Pseudomonas aeruginosa, CIP103467
[2] = system: E. faecalis VRE CIP 104676; test: Antibacterial activity (MIC/MBC); type: cell-based, Enterococcus faecalis; conditions: Enterococcus faecalis
H. influenzae CIP 102514 = test: Antibacterial activity (MIC/MBC); type: cell-based, Haemophilus influenzae; conditions: Haemophilus influenzae, CIP102514
S. pneumoniae PRSP = test: Antibacterial activity (MIC), Table VII; type: cell-based; conditions: Streptococcus pneumoniae
B. subtilis CIP 5262 = test: Antibacterial activity (MIC); type: cell-based; conditions: Bacillus subtilis, CIP5262
[3] = system: B. thuringiensis CIP 104676; test: Antibacterial activity (MIC); type: cell-based; conditions: Bacillus thuringiensis, CIP104676
S. aureus NorA 1199B = test: Antibacterial activity (MIC); type: cell-based, Staphylococcus aureus
[4] = system: S. aureus MRSA clinical isolate; test: Antibacterial activity (MIC); type: cell-based, Staphylococcus aureus; conditions: Staphylococcus aureus; S. aureus MRSA clinical isolate; read-out: MIC
S. pyogenes CIP 56.41T = test: Antibacterial activity (MIC/MBC); type: cell-based, Streptococcus pyogenes; conditions: Streptococcus pyogenes, CIP56, S. pyogenes CIP 56.41T; for MIC: read-out: MIC
[5] = system: S. pneumoniae PRSP clinical isolate; test: Antibacterial activity (MIC/MBC); type: cell-based, Streptococcus pneumoniae; conditions: Streptococcus pneumoniae; for MIC: PRSP
[6] = system: S. pneumoniae PSSP CQI 201; test: Antibacterial activity (MIC); type: cell-based, Streptococcus pneumoniae; conditions: for MIC: Streptococcus pneumoniae, S. pneumoniae PSSP CQI 201, read-out: MIC
S. pneumoniae mefE = test: Antibacterial activity (MIC); type: cell-based; conditions: Streptococcus pneumoniae; S. pneumoniae mefE (macrolide-resistant by efflux)
B. fragilis API 7716 = test: Antibacterial activity (MIC); type: cell-based; conditions: Bacteroides fragilis, API7716
[7] = system: S. pneumoniae PRSP CIP 104471; test: Antibacterial activity (MIC/MBC); type: cell-based, Streptococcus pneumoniae; conditions: Streptococcus pneumoniae
[8] = system: Human lung fibroblast cells (ATCC CCL-171); test: Cytotoxicity (MTT) assay; conditions: human, 18 hr
Method: Cellular toxicity was measured by a colorimetric assay that makes use of the tetrazolium salt, MTT. Human lung fibroblast cells (ATCC CCL-171) were plated in 96-well plates at 10^4 cells per well and incubated under 5% CO2 at 37° C. for 24 hr to allow adherence of cells to the plate. Test compounds were prepared as a stock solution at 1 mg/mL in 1% DMSO/water and diluted with water for the serial dilutions (500-7.8 μg/mL). Cells underwent a 18 hr treatment under 5% CO2 at 37° C. with experimental drugs. Corresponding controls received either no drug treatment or treatment with SDS (sodium dodecyl sulfate). The optical density of each sample was read on a microplate spectrophotometer reader at 600 nm and cell survival was expressed as a fraction of that of untreated controls. A drug is said cytotoxic when this fraction is ≦−30%

[9] = system: Staphylococcus aureus MSSA 53.154; test: Murine experimental septicaemia, in vivo efficacy; design: species or system mice; conditions: sc, mice, subcutaneously at 1 and 6 h post infection, survival on day 9, hybrid molecules formulated in water as their sodium salt, read-out: ED50
Method: Experimental septicaemia was induced in mice as follows. Briefly, male Swiss OF1 mice (IFFA CREDO-Charles River) weighing 18 to 20 grams were infected intraperitoneally with 0.5 mL of a bacterial suspension containing 8.5×10^7 cfu of Staphylococcus aureus MSSA 53.154 (Institut Pasteur). The hybrid molecules were administered subcutaneously at 1 and 6 h post infection. Control and treatment groups at each dose were composed of seven mice. All the infected but untreated control mice died within 9 days. The 50% effective dose (ED50) values were calculated by a computerized program (GraphPad) from the survival rates on day 9 after infection.

[10] = system: S. pneumoniae PSSP CIP 6.92; test: Antibacterial activity (MIC/MBC); type: cell-based; conditions: Streptococcus pneumoniae, CIP6
M. catarrhalis CIP73.21T = test: Antibacterial activity (MIC/MBC); type: cell-based; conditions: Moraxella catarrhalis
Oral toxicity in mice = type: in vivo; conditions: counted on day 30
Method: The test compound: PA 1046 (example 5) was emulsified in a mixture of Tween 80/methylcellulose in water (0.5% of Tween 80, 0.6% of methylcellulose and 98.9% of water) at different concentrations. The emulsion was administered orally to 6-week-old female Swiss CD1 mice (Janvier) on day 0 and on day 2. The number of survival mice was counted on day 30.

[11] = Staphylococcus aureus, NORA1199B
[12] = Staphylococcus aureus, S. aureus MSSA CIP 4.83, read-out: MIC
[13] = E. coli CIP 54127, read-out: MIC
[14] = P. aeruginosa CIP 103467, read-out: MIC
[15] = E. faecalis VRE CIP 104676, read-out: MIC
[16] = H. influenzae CIP 102514, read-out: MIC
[17] = S. pneumoniae PRSP (Table VII), read-out: MIC
[18] = B. subtilis CIP 5262, read-out: MIC
[19] = B. thuringiensis CIP 104676, read-out: MIC

Compound: O=C(O)c1cn(C2CC2)c2cc(N3CCN(c4ccnc5cc(Cl)ccc45)CC3)c(F)cc2c1=O [hydrochloride]
MIC ([1]; Staphylococcus aureus): 0.156 µg/mL | MIC (E. coli CIP 54127): 0.612 µg/mL | MIC (P. aeruginosa CIP 103467): 5 µg/mL | MIC [2]: 0.078 µg/mL | MIC (H. influenzae CIP 102514): 0.312 µg/mL | MIC (S. pneumoniae PRSP; PRSP): 0.078 µg/mL | MIC (B. subtilis CIP 5262): < 0.001 µg/mL | MIC [3]: 0.156 µg/mL | fold more active than the sub-structure from which it comes (S. aureus NorA 1199B; S. aureus NorA, versus ciprofloxacin): 280 | MIC (S. aureus NorA 1199B; [11]): 0.18 µg/mL

Compound: CC[C@@H]1OC(=O)[C@H](C)[C@H](OC2CC(C)(OC)C(O)C(C)O2)[C@@H](C)[C@@H](OC2OC(C)CC(N(C)C)C2O)[C@](C)(O)C[C@@H](C)/C(=N\OCCCNc2ccnc3cc(Cl)ccc23)[C@@H](C)[C@H](O)[C@]1(C)O (stereo partly shown) [PA 1169, 10{O-[3-(7-Chloroquinolin-4-ylamino)-propyl]-oxime}-erythromycin]
MIC [1, 12]: 0.156 µg/mL (≈ 0.161 µM) | MIC [4]: 0.31 µg/mL (≈ 0.32 µM) | MIC (S. pyogenes CIP 56.41T): 0.078 µg/mL (≈ 0.0806 µM) | MIC ([5]; read-out: MIC): > 5 µg/mL | gain in activity (factor) ([6]; Streptococcus pneumoniae PSSP, versus macrolide residue): 8 | MIC [6]: 0.005 µg/mL (≈ 0.00517 µM) | MIC (S. pneumoniae mefE): 1.25 µg/mL (≈ 1.29 µM)

Compound: O=C(O)c1cn(C2CC2)c2cc(N3CCNCC3)c(F)cc2c1=O [Ciprofloxacin, reference compound]
MIC [1, 12]: 0.312 µg/mL (≈ 0.942 µM) | MIC (E. coli CIP 54127; [13]): 0.01 µg/mL (≈ 0.0302 µM) | MIC (P. aeruginosa CIP 103467; [14]): 0.156 µg/mL (≈ 0.471 µM) | MIC [2, 15]: 1.25 µg/mL (≈ 3.77 µM) | MIC (H. influenzae CIP 102514; [16]): 0.1 µg/mL (≈ 0.302 µM) | MIC (S. pneumoniae PRSP; [17]): 1.25 µg/mL (≈ 3.77 µM) | MIC (B. subtilis CIP 5262; [18]): 0.04 µg/mL (≈ 0.121 µM) | MIC [3, 19]: 0.156 µg/mL (≈ 0.471 µM) | MIC (S. aureus NorA 1199B; S. aureus NorA 1199B (quinolone-resistant by efflux)): >50 µg/mL | MIC (S. aureus NorA 1199B; [11]): > 50 µg/mL

Compound: CC(=O)OCC1=C(C(=O)O)N2C(=O)[C@@H](NC(=O)CNc3ccnc4cc(Cl)ccc34)[C@H]2SC1 [PA 1046, (6R,7R)-3-Acetoxymethyl-7-[2-(7-chloroquinolin-4-ylamino)-acetylamino]-8-oxo-5-thia-1-aza-bicyclo[4.2.0]oct-2-ene-2-carboxylic acid]
MIC ([1]; S. aureus CIP 4.83, without serum (Table VI)): 0.2 µg/mL (≈ 0.407 µM) | MIC ([1]; Staphylococcus aureus, S. aureus CIP 4.83, +50% human serum, read-out: MIC in the presence of human serum): 0.78 µg/mL | MBC ([1]; Staphylococcus aureus, S. aureus MSSA CIP 4.83, read-out: MBC): > 50 µg/mL | MIC [1, 12]: 0.2 µg/mL (≈ 0.407 µM) | MBC ([2]; E. faecalis VRE CIP 104676): 50 µg/mL (≈ 102 µM) | MBC [7]: 0.025 µg/mL (≈ 0.0509 µM) | MIC ([7]; read-out: MIC): 0.006 µg/mL (≈ 0.0122 µM) | MBC (S. pyogenes CIP 56.41T): 0.003 µg/mL (≈ 0.00611 µM) | MIC (S. pyogenes CIP 56.41T): 0.003 µg/mL (≈ 0.00611 µM) | % of survival cells compared to the untreated controls ([8]; 7.8 μg/mL): −5.6% | % of survival cells compared to the untreated controls ([8]; 15.6 μg/mL): −8.3% | % of survival cells compared to the untreated controls ([8]; 31.2 μg/mL): −5.6% | % of survival cells compared to the untreated controls ([8]; 62.5 μg/mL): −9.0% | % of survival cells compared to the untreated controls ([8]; 125 μg/mL): −14.1% | % of survival cells compared to the untreated controls ([8]; 250 μg/mL): −17.8% | % of survival cells compared to the untreated controls ([8]; 500 μg/mL): −18.1% | MBC [5]: 0.1 µg/mL (≈ 0.204 µM) | MIC ([5]; +50% human serum, read-out: MIC in the presence of human serum): 1.56 µg/mL | MIC ([5]; read-out: MIC): 0.05 µg/mL (≈ 0.102 µM) | MIC ([5]; without serum (Table VI), read-out: MIC): 0.2 µg/mL (≈ 0.407 µM) | ED50 [9]: 0.04 mg/kg | MBC (H. influenzae CIP 102514): 25 µg/mL (≈ 50.9 µM) | MBC [10]: 0.012 µg/mL (≈ 0.0244 µM) | MIC [10]: 0.012 µg/mL (≈ 0.0244 µM) | MBC (M. catarrhalis CIP73.21T): 0.78 µg/mL (≈ 1.59 µM) | MIC (M. catarrhalis CIP73.21T): 0.78 µg/mL (≈ 1.59 µM) | Survival (%) (Oral toxicity in mice; 100 mg/kg orally on day 0 and day 2, mice): 5/5 (100%) | Survival (%) (Oral toxicity in mice; 200 mg/kg orally on day 0 and day 2, mice): 5/5 (100%)

Compound: Cl.O=C(O)c1cn(C2CC2)c2cc(N3CCN(CCNc4ccnc5cc(Cl)ccc45)CC3)c(F)cc2c1=O [PA 1127, 7-{4-[2-(7-Chloroquinolin-4-ylamino)-ethyl]-piperazin-1-yl}-1-cyclopropyl-6-fluoro-4-oxo-1,4-dihydroquinoline-3-carboxylic acid hydrochloride]
MIC [1, 12]: 1.25 µg/mL | MIC (E. coli CIP 54127; [13]): 0.156 µg/mL | MIC (P. aeruginosa CIP 103467; [14]): 5 µg/mL | MIC [2, 15]: 1.25 µg/mL | MIC (H. influenzae CIP 102514; [16]): 0.156 µg/mL | MIC (S. pneumoniae PRSP; [17]): 2.5 µg/mL | MIC (B. subtilis CIP 5262; [18]): 0.312 µg/mL | MIC [3, 19]: 0.625 µg/mL | MIC (S. aureus NorA 1199B; [11]): 3 µg/mL

Compound: Cc1ncc([N+](=O)[O-])n1CCO [Metronidazole, reference compound]
MIC (B. fragilis API 7716): 0.2 µg/mL (≈ 1.17 µM)

Results, then the compound that gave them:

MIC [1, 12]: 0.156 µg/mL (≈ 0.213 µM) | MIC [4]: 0.156 µg/mL (≈ 0.213 µM) | MIC (S. pyogenes CIP 56.41T): 0.039 µg/mL (≈ 0.0531 µM) | MIC ([5]; read-out: MIC): > 5 µg/mL | MIC [6]: 0.039 µg/mL (≈ 0.0531 µM) | MIC (S. pneumoniae mefE): 5 µg/mL (≈ 6.81 µM)
Compound: CC[C@H]1OC(=O)[C@H](C)[C@@H](O[C@H]2C[C@@](C)(OC)[C@@H](O)[C@H](C)O2)[C@H](C)[C@@H](O[C@@H]2O[C@H](C)C[C@H](N(C)C)[C@H]2O)[C@](C)(O)C[C@@H](C)C(=O)[C@H](C)[C@@H](O)[C@]1(C)O [Erythromycin, reference compound]

MIC (B. fragilis API 7716): 0.78 µg/mL (≈ 2.35 µM)
Compound: Cc1ncc([N+](=O)[O-])n1CCNc1ccnc2cc(Cl)ccc12 [PA 1129, (7-Chloroquinolin-4-yl)-[2-(2-methyl-5-nitroimidazol-1-yl)-ethyl]-amine]

MIC (B. fragilis API 7716): 3.12 µg/mL (≈ 8.54 µM)
Compound: Cc1ncc([N+](=O)[O-])n1CCNc1ccnc2cc(C(F)(F)F)ccc12 [PA 1130, [2-(2-Methyl-5-nitroimidazol-1-yl)-ethyl]-(7-trifluoromethylquinolinyl-4-yl)-amine]
